Laboratory results reported in patent US10286356B2, “Process for the removal of acid gases from gaseous mixtures using an aqueous solution of 2-dimethylamino-2-hydroxymethyl-1, 3-propanediol” (Dow Global Technologies LLC, priority 2014, dated 2019).

Key:
[1] = pKa of the alkanolamines (Table 1); type: physicochemical
Boiling point (Table 1) = type: physicochemical

Boiling point (Boiling point (Table 1)) | SMILES | pKa [1]
335 ° F. | CN(C)C(CO)(CO)CO [DMTA, 2-dimethylamino-2-hydroxymethyl-1,3-propanediol] | –
268 ° F. | OCCNCCO [DEA, diethanolamine] | –

SMILES | Boiling point (Boiling point (Table 1)) | pKa [1]
NCCOCCO [DGA, 2-aminoethoxyethanol] | 221 ° F. | 9.4
